Experimental data as given in US10213450B2, “Combination of biologically active substances for treatment of hyperglycaemic disorders” (BioActive Food GmbH, priority 2014, dated 2019).

How the values were obtained:
[1] = target: T1, lactase phlorizin hydrolase (LPH) (Homo sapiens, UniProt P09848); assay: In vitro inhibition of LPH, phlorizin dihydrate as substrate, released glucose measured; assay type: biochemical
T1 construct: tissue of the human small intestine (0.6 mg/ml) expressing the LPH was used; from tissue; host or cells: human small intestine tissue
Protocol: Various quercetin and kaempferol derivates were tested in vitro as inhibitors of lactase phlorizin hydrolase (LPH). The testing was carried out according to Amiri et al. (2012, J Inherit Metab Dis, 35(6): 949-54). Here, tissue of the human small intestine (0.6 mg/ml) expressing the LPH was used. Phlorizin dihydrate served as the substrate. The released glucose was measured using a standard assay (Chu & Cheung, 1978, Clin Biochem, 11(4): 187-9).

[2] = target: T2, human SGLT1 (Homo sapiens, UniProt P13866); assay: Ex vivo model: incubation with LPH-expressing human small intestine brush border membranes, then SGLT1 activity of supernatants by two-electrode voltage-clamp in Xenopus oocytes; assay type: cell-based; details: LPH inhibitor 10 μg/ml alone
T2 construct: expressed in transfected cells; host or cells: Xenopus oocytes
T2 sequence (P13866 1-664): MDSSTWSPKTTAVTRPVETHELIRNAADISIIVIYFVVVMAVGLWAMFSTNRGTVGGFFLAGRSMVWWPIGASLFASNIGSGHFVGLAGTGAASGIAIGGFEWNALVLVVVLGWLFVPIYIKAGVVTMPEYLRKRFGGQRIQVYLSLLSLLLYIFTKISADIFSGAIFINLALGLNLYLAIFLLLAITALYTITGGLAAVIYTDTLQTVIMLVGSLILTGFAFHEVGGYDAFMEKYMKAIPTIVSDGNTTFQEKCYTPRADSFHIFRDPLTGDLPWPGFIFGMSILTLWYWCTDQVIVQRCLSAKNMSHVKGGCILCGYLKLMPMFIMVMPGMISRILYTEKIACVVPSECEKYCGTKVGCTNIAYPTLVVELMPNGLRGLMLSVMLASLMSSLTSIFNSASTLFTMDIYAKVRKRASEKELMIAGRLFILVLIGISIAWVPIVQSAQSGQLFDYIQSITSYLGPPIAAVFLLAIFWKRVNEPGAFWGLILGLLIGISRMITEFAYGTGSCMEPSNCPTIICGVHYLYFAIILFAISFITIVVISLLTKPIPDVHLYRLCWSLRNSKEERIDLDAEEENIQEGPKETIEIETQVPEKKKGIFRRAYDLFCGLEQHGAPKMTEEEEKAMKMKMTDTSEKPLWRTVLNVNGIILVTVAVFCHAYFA
Protocol: The effect of a combination of phlorizin and a LPH inhibitor on the uptake of glucose by the SGLT 1 transporter was tested with an ex vivo model that simulates the situation in the human intestine. The ex vivo test model uses tissue from the human small intestine which expresses the lactase phlorizin hydrolase (LPH) and is thus able to cleave phlorizin and other glycosides. Subsequently, the reaction batches that had been pre-processed in this way were tested in an in vitro assay for their inhibitory effect on the SGLT1 transporter.
In summary, so-called “brush border membranes” were prepared from the small intestine and incubated in an appropriate buffer with phlorizin and/or the respective LPH inhibitor for 90 minutes.
Here, Xenopus oocytes were used which express the human SGLT1. The transport of glucose by SGLT1 can be measured because the combined transport of glucose and sodium by SGLT1 causes a current through the oocyte membrane. This current is determined electrophysiologically by a “two-electrode voltage-clamp” method. In this model, a reduction in the activity of the SGLT1 also results in a reduction of current across the cell membrane.

T1 sequence (P09848 869-1927): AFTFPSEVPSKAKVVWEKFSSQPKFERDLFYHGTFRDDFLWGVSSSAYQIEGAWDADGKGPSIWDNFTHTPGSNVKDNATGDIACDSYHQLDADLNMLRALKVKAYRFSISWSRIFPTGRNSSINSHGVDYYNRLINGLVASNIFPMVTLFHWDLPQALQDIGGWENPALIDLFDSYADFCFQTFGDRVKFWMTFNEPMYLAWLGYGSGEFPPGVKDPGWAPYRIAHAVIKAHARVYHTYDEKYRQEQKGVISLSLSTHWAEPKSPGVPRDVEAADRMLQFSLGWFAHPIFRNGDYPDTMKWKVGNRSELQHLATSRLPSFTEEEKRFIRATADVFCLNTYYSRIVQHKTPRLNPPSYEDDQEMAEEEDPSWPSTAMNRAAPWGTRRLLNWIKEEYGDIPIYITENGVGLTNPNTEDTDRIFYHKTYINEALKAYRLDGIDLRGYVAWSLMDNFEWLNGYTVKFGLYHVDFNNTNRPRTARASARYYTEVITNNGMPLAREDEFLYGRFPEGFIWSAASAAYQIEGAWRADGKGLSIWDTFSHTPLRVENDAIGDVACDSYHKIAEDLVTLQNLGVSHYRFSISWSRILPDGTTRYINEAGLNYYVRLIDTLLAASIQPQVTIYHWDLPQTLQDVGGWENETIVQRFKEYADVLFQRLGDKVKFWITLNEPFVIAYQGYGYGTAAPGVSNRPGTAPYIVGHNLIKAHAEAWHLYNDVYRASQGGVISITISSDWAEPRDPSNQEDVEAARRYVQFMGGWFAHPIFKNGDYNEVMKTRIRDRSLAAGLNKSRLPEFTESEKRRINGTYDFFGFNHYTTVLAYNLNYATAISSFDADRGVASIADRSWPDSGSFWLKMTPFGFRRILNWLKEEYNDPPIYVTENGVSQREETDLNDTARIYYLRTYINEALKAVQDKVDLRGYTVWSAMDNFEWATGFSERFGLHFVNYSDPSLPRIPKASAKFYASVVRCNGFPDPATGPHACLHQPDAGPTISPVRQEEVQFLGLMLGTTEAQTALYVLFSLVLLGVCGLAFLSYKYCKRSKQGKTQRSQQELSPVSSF

Row | SMILES | inhibition of the LPH ([1]; concentration of 50 mg/ml (as printed in text)) | Glucose uptake, inhibition ([2]; Batch A) [%] | Glucose uptake, inhibition ([2]; Batch B) [%] | inhibition at 100 µg/mL ([1]; 100 μg/ml inhibitor (stated in cell)) [%]
1 | O=c1c(O)c(-c2ccc(O)c(O)c2)oc2cc(OC3O[C@H](CO)[C@@H](O)[C@H](O)[C@H]3O)cc(O)c12 (stereo partly shown) [No. 3, 3,3′,4′,5,7-pentahydroxy flavone-7-glucoside] | about 70% | 2 | 2.5 | –
2 | O=c1c(OC2O[C@H](CO)[C@@H](O)[C@H](O)[C@H]2O)c(-c2ccc(O)c(O)c2)oc2cc(O)cc(O)c12 (stereo partly shown) [compound 2] | – | – | – | 13.7
